Data from PubChem BioAssay (NCI).
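48-hour exposure; five concentrations; linearly interpolated endpoints. TGI: total growth inhibition.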

Tests used:
Experiment in all cases: NCI anticancer screen, dose series, 48 h
HCC-2998 colon = test system: HCC-2998 colon
NCI-H226 lung = test system: NCI-H226 lung
NCI-H460 lung = test system: NCI-H460 lung
NCI/ADR-RES ovarian = test system: NCI/ADR-RES ovarian
OVCAR-4 ovarian = test system: OVCAR-4 ovarian
PC-3 prostate = test system: PC-3 prostate
RXF 393 renal = test system: RXF 393 renal
SK-MEL-5 melanoma = test system: SK-MEL-5 melanoma
SK-OV-3 ovarian = test system: SK-OV-3 ovarian
SNB-19 CNS = test system: SNB-19 CNS
UO-31 renal = test system: UO-31 renal

Row | SMILES | TGI (HCC-2998 colon) [µM] | TGI (NCI-H226 lung) [µM] | TGI (NCI-H460 lung) [µM] | TGI (NCI/ADR-RES ovarian) [µM] | TGI (OVCAR-4 ovarian) [µM] | TGI (PC-3 prostate) [µM] | TGI (RXF 393 renal) [µM] | TGI (SK-MEL-5 melanoma) [µM] | TGI (SK-OV-3 ovarian) [µM] | TGI (SNB-19 CNS) [µM] | TGI (UO-31 renal) [µM]
1 | CC1(C)CC[C@]2(C(=O)O)[C@H](O)C[C@]3(C)C(=CC[C@@H]4[C@@]5(C)CC[C@H](OC6OC(C(=O)O)C(O)C(O)C6O)C(C)(C)[C@@H]5CC[C@]43C)[C@@H]2C1 (stereo not given in full) | > 100 | > 100 | > 100 | > 100 | 58.4 | > 100 | 81.6 | > 100 | > 100 | > 100 | 32
2 | C[N+](C)(N)c1nc(N)c(C#N)c(C#N)c1C#N | > 10 | > 10 | > 10 | > 10 | > 10 | > 10 | > 10 | > 10 | > 10 | > 10 | > 10
3 | CC1(C)C2CCC(N)(C2)C1O (stereo not given) | > 100 | > 100 | > 100 | > 100 | > 100 | > 100 | > 100 | > 100 | > 100 | > 100 | > 100
4 | COC(=O)[C@H](CCSC)NC(=O)c1ccc(CNC(=O)/C(C)=C/c2ccccc2)cc1 | 83.6 | > 100 | > 100 | 68.5 | > 100 | > 100 | 51.1 | > 100 | > 100 | 58.2 | > 100
5 | COc1ccc(C[C@@H]2OC3(C=CC(=O)C=C3)O[C@H]2Cc2ccc(OC)cc2)cc1 | 2.95 | 0.652 | 25.1 | 2.64 | 2.14 | 3.47 | 0.79 | 2.94 | 13.5 | 5.01 | 0.379
6 | COc1cc(C=O)cc(C=Nc2ccc(S(N)(=O)=O)cc2)c1O | 42.7 | 9.58 | 74.6 | > 100 | > 100 | 21.3 | 14.5 | 23 | 7.93 | > 100 | > 100
7 | CC(/C=N/NC1=NCCCN1)=N\NC1=NCCCN1 | > 100 | > 100 | > 100 | > 100 | > 100 | > 100 | > 100 | > 100 | > 100 | > 100 | > 100
8 | COP(C)(=O)C(Cc1c[nH]c2ccccc12)NC(=O)OCc1ccccc1 (stereo not given) | > 100 | > 100 | > 100 | > 100 | > 100 | > 100 | > 100 | > 100 | > 100 | > 100 | > 100
9 | C#CCCCC(=O)N(C(=O)CS(=O)CC)c1ccccc1 (stereo not given) | > 100 | > 100 | > 100 | > 100 | > 100 | > 100 | > 100 | > 100 | > 100 | > 100 | > 100
10 | OC(CN1CCCCC1)c1ccc(/C=C/c2ccc(Cl)cc2)cc1 (stereo not given) | > 100 | > 100 | > 100 | > 100 | > 100 | > 100 | > 100 | 43.8 | > 100 | > 100 | > 100
11 | Cc1cc(O)c(C(C)C)cc1N=Cc1ccccc1O | 14.7 | 20.4 | 24.6 | > 67 | 9.66 | 22.4 | 2.64 | 18.8 | 28.8 | 36.5 | 33.7
12 | CCCCCCCCCCCCCCCCP(=O)([O-])OCC[N+](C)(C)C | 22 | 40.9 | 18.8 | 34.7 | 34.7 | 8.66 | 15 | 30 | 24.6 | > 57.4 | 28.2
13 | CC1CC[C@@]2(OC1)OC1C[C@H]3[C@@H]4CCC5CC(O)CC[C@]5(C)[C@H]4C/C(=N\N(C)C)[C@]3(C)C1[C@@H]2C (stereo not given in full) | 45.6 | > 100 | > 100 | 41.4 | > 100 | 84.6 | 37.7 | 53.3 | 47 | 88.4 | 90.4
14 | Nc1ccc(-c2nc3ccccc3s2)cc1Br | > 100 | > 100 | > 100 | > 100 | > 100 | > 100 | > 100 | > 100 | > 100 | > 100 | > 100
15 | CC(=O)N(CN1C(=O)CCC1C(=O)O)c1ccccc1Cl (stereo not given) | > 100 | > 100 | > 100 | > 100 | > 100 | > 100 | > 100 | > 100 | > 100 | > 100 | > 100
